Broadly, the LD50 is the dose at which mortality reaches 50%. A low value points to greater toxicity.

Data set [1] relates to dopamine-β-hydroxylase. The settings on record: literature, cited from earlier work; for dopamine-β-hydroxylase inhibiting effects, in words / duration of dopamine-β-hydroxylase inhibiting effect, in words: known compounds.
Data set [2] deals with dopamine-β-hydroxylase. Nature of the data set: Noradrenaline and dopamine levels of the cerebrum (brain) in rats, % of controls. Conditions: rat, i.p., 400 mg/kg, time not given. The data set is classed as in vivo, male Wistar rats. As for the experimental part:
The dopamine-β-hydroxylase inhibiting effects of the new compounds according to the invention were examined by the following tests:
(§1) The tests were performed on male Wistar rats weighing 150 to 200 g. The dopamine-β-hydroxylase inhibiting effects of the compounds were evaluated by determining the change of noradrenaline, dopamine and adrenaline levels of the cerebrum, heart, spleen and adrenal gland. The serotonine and 5-hydroxy-indolylacetic acid levels of the cerebrum were also determined. The measurements were performed as follows:
(§2) The animals were decapitated, the cerebrum, heart, spleen and adrenal gland were removed quickly, and the organs were frozen by placing them on a metal sheet cooled with dry ice. The frozen organs were stored for a maximum of one night at -20° C.
The organs were weighed in the frozen state and then homogenized in 5.0 ml of 0.4 N perchloric acid containing 0.05% of EDTA-Naa and 0.1% of Na2 S2 O5. The homogenized mixtures were centrifuged as described above for the treatment of adrenal gland, the supernatants were decanted, and the pH was adjusted to 8.0±0.1 with a 0.1 molar tris buffer containing 20 g/l of NaOH and 25 g/l of EDTA-Na2. 100 mg of prepared Al2 O3 (Anton et al.: J. Pharm. Ther. 138, 360 (1962)) were added to the samples, and the mixtures were shaken mechanically for 20 minutes. Thereafter the Al2 O3 was washed with 2×10 ml of distilled water, and noradrenaline was eluted with 1.0 ml of 0.05 N perchloric acid. 0.5 ml samples of the eluate were used for the determination of noradrenaline. Noradrenaline was determined according to the method of Shellenberger et al. (Anal. Biochem. 39, 356 (1971)), with the following modifications of the basic procedure: 0.5 ml of 0.1 molar Na-K-phosphate buffer, containing 9 g/l of EDTA-Na2, were added to 0.5 ml of the eluate, and the catecholamines (noradrenaline in the examination of heart and spleen and noradrenaline and dopamine in the examination of the cerebrum) were oxidized with 0.1 ml of a 0.1 N iodine solution in 5% potassium iodide. After exactly 2 minutes, oxidation was stopped by adding 0.25 ml of a 2.5% sodium sulfite solution in 4.4 N aqueous sodium hydroxide to the mixture. 2 minutes after the introduction of the alkaline sulfite solution, 0.2 ml of concentrated acetic acid was added to the samples, whereupon the pH decreased to 4.4 to 4.5. Thereafter the samples were placed for 5 minutes in a drying oven heated to 100° C., and then the samples were cooled with ice water. The fluorescency of noradrenaline was measured with an OPTON spectrophotometer at wavelengths of 380 nm (excitation) and 490 nm (emission).
The brains were homogenized in 10 parts by volume of 0.4 N perchloric acid. The homogenized mixture was stored at -20° C. overnight; thereafter it was thawed and centrifuged as described above. A sample of the homogenized mixture corresponding to 0.5 g of brain was removed, the pH of the sample was adjusted to 8.0±0.1 with 0.1 molar tris-buffer of the above composition, and the sample was processed as described above for the determination of the noradrenaline content of heart and spleen, with the difference that 1.5 ml of 0.05 N perchloric acid was used as the eluting agent. 0.5 ml of the eluate was used to determine the noradrenaline and dopamine contents. The measurement was performed as described above, with the difference that samples of 0.5 ml were applied for the recording of the flourescence of noradrenaline. The residue was placed for 50 minutes into a drying oven heated to 100° C., thereafter the sample was cooled with ice water, and the fluorescence of dopamine was recorded at wavelengths of 325 nm (excitation) and 380 nm (emission).
In a further test series the serotonine and 5-hydroxy-indolylacetic acid contents were also determined, in addition to the determination of the noradrenaline and dopamine content, from the same sample. […]

A short description of data set [3]: in vivo. Conditions: mouse, in vivo, mice.
In data set [4] the test system is serotonine and 5-hydroxy-indolylacetic acid levels of the cerebrum. As to the kind of experiment: Serotonine and 5-hydroxy-indolylacetic acid levels of the cerebrum (brain) in rats, % of controls. Type of data set: in vivo, male Wistar rats. The settings on record: rat; for response vs control in vivo at 500 mg/kg: po, p.o. On the procedure:
as §1, §2
In a further test series the serotonine and 5-hydroxy-indolylacetic acid contents were also determined, in addition to the determination of the noradrenaline and dopamine content, from the same sample. In this instance the brains were homogenized in 10 ml of 75% ethanol, 0.2 ml of EDTA-Na2 and 5% of ascorbic acid were added to the homogenized mixtures, and the homogenized mixtures were maintained at -20° C. overnight. The mixtures were centrifuged as described above, and 5.0 ml samples of the supernatant were removed. The samples were diluted with equal volumes of distilled water, and poured onto ion exchange columns of 0.5×1.5 cm dimensions, filled with buffered Amberlite CG-30 (200 to 400 mesh). The columns were washed with 5 ml of distilled water followed by 1.0 ml of 0.2 N hydrochloric acid, and the first effluent and the aqueous wash were collected for the determination of 5-hydroxy-indolylacetic acid. Elution was continued with a further 1.2 ml quantity of 0.2 N hydrochloric acid in order to remove noradrenaline, dopamine and serotonine. Samples of 0.3 ml were used for the determinations.
Noradrenaline and dopamine were determined by the method of Shellenberger, modified as described above, whereas serotonine was determined by the method of Curzon et al. (Brit. J. Pharmacol. 39, 653 (1970)). The basic method was modified as follows: A 0.5% solution of ortho-phthal(di)aldehyde in absolute ethanol was diluted with […] hydrochloric acid to 50-fold of its original volume, and 0.6 ml of the resulting 0.01% ortho-phthal(di)aldehyde solution were added immediately to 0.5 ml of the serotonine-containing sample. The sample was placed in a hot water bath for 10 minutes, thereafter cooled with tap water, and the flourescence was recorded at wavelengths of 360 nm (excitation) and 490 nm (emission).
5-Hydroxy-indolylacetic acid was determined from the mixture of the first effluent and the aqueous wash. 10 ml of distilled water and 0.2 ml of concentrated hydrochloric acid were added to the mixture, and the sample was poured onto a 0.8×4.0 cm column filled with Sephadex G-10. The column was washed with 15 ml of 0.1 N hydrochloric acid followed by 1.8 to 2.0 ml of 0.02 N aqueous ammonia, and then 5-hydroxy-indolylacetic acid was eluted with further 2.0 ml of the aqueous ammonia. 0.5 ml samples were used in the measurements, and the determination was performed according to the method of Korf et al. (Biochem. Pharmacol. 20, 659 (1971)).
In the tests disulfiram, 2,2-dipyridyl, bis(1-methyl-4-homopiperazinyl-thiocarbonyl)-disulfide, sodium diethyldithiocarbamate and N-phenyl-N'-(2-thiazolyl)-thiourea were used as reference substances. The values indicated in Table 1 are the percentages in relation to the amine levels of the controls measured in the same tests (±standard error). The statistical calculations were performed on a TPA/i type computer, using Student's t test.

The mark [5] stands for this setting: ip, i.p., 4 hours, read-out: Brain 5-HIAA level (percentages in relation to the controls).
[6] abbreviates: ip, i.p., 4 hours, read-out: Brain SE level (percentages in relation to the controls).
The mark [7] stands for this setting: ip, i.p., 8 hours, read-out: Brain 5-HIAA level (percentages in relation to the controls).
[8] abbreviates: ip, i.p., 8 hours, read-out: Brain SE level (percentages in relation to the controls).

Read-outs that look alike come from different tables or passages of the source.

For the molecule `NOCc1ccccc1` [Benzyloxyamine], in data set [1], the “dopamine-β-hydroxylase inhibiting effects, in words” value is given as “exert dopamine-β-hydroxylase inhibiting effects” and the “duration of dopamine-β-hydroxylase inhibiting effect, in words” value is reported as “only active for a short period”.
With `CCN(CC)C(=S)[S-].[Na+]` [DDC-Na, sodium diethyldithiocarbamate], in data set [2], the “Brain DA level (percentages in relation to the controls)” value was found to be 120% and the “Brain NA level (percentages in relation to the controls)” value was determined as 64.1%.
As for `CN1CCCN(C(=S)SSC(=S)N2CCCN(C)CC2)CC1` [FLA-63, bis(1-methyl-4-homopiperazinyl)-thiocarbonyl-disulfide], the “dopamine-β-hydroxylase inhibition in vivo, in words” value in data set [1] (in vivo conditions) was “one of the most potent dopamine-β-hydroxylase inhibitors under in vivo conditions”. This molecule also registered an LD50 in data set [3] (ip) of 150 mg/kg. For the same molecule, the response vs control in vivo at 50 mg/kg in data set [4] (setting [5]) was determined as 134%; in data set [4] (setting [6]), 124%.
`CCCCc1ccc(C(=O)O)nc1` [Fusaric acid, 5-butyl-picolinic acid]: the “dopamine-β-hydroxylase inhibiting effects, in words” value in data set [1] is reported as “strong dopamine-β-hydroxylase inhibiting effects”. This molecule also showed a median lethal dose (LD50) in data set [3] (po) of 230 ± 25 mg/kg.
In the case of `NNc1nncc2ccccc12` [Hydralazine], in data set [1], the “dopamine-β-hydroxylase inhibiting effects, in words” value was “possess dopamine-β-hydroxylase inhibiting effects”. In data set [3] (ip), this molecule yielded an LD50 of 83 mg/kg.
`NC1=C(C(=S)SSC(=S)C2=C(N)CCC2)CCC1` [M-1]: the LD50 in data set [3] (ip) is roughly 800 mg/kg. Besides, the response vs control in vivo at 200 mg/kg in data set [4] (setting [5]) was 152%; in data set [4] (setting [6]), 115 ± 4.7%; in data set [4] (setting [7]), 125 ± 10.7%; in data set [4] (setting [8]) it was 111 ± 5.1%.
`CCCCNC1=C(C(=S)SSC(=S)C2=C(NCCCC)CCC2)CCC1` [M-2, 2-(N-butyl)-amino-cyclopent-1-ene-thiocarboxylic acid-disulfide]: the response vs control in vivo at 200 mg/kg in data set [4] (setting [6]) worked out at 97.6%; in data set [4] (setting [8]), 97.3 ± 11.3%.
Regarding `S=C(SSC(=S)C1=C(NC2CCCCC2)CCC1)C1=C(NC2CCCCC2)CCC1` [M-5, 2-(N-cyclohexyl)-amino-cyclopent-1-ene-thiocarboxylic acid disulfide], the median lethal dose (LD50) in data set [3] (ip) is greater than 1000 mg/kg. Moreover, the response vs control in vivo at 200 mg/kg in data set [4] (setting [5]) was found to be 143 ± 8%; in data set [4] (setting [6]) it was 104 ± 7.6%; in data set [4] (setting [7]), 178 ± 10.8%; in data set [4] (setting [8]) it was 105 ± 4.5%.
With `CCNC1=C(C(=S)SSC(=S)C2=C(NCC)CCC2)CCC1` [M-6, 2-(N-ethyl)-amino-cyclopent-1-ene-thiocarboxylic acid-disulfide], the 50% lethal dose (LD50) in data set [3] (ip) was in the range of 1000 to 1500 mg/kg. The response vs control in vivo at 100 mg/kg in data set [4] (ip, i.p., 100 mg/kg, 4 hours, read-out: Brain SE level (percentages in relation to the controls)) was determined as 107 ± 2.2%. In addition, the response vs control in vivo at 200 mg/kg in data set [4] (setting [5]) is 155 ± 8.5%; in data set [4] (setting [6]), 112 ± 5.2%; in data set [4] (setting [7]), 195 ± 4.8%; in data set [4] (setting [8]) it was 104 ± 7.4%. Further, the response vs control in vivo at 500 mg/kg in data set [4] (4 hours, read-out: Brain SE level (percentages in relation to the controls)) came to 118 ± 4.6%; in data set [4] (8 hours, read-out: Brain SE level (percentages in relation to the controls)) it was 91.2 ± 0.9%.
In data set [3] (ip), `C=CCNC1=C(C(=S)SSC(=S)C2=C(NCC=C)CCC2)CCC1` [M-7, 2-(N-allyl)-amino-cyclopent-1-ene-thiocarboxylic acid-disulfide] gave an LD50 greater than 1000 mg/kg. Further, the response vs control in vivo at 200 mg/kg in data set [4] (setting [5]) was 117 ± 6.5%; in data set [4] (setting [6]), 113 ± 8%; in data set [4] (setting [7]), 126 ± 10.5%; in data set [4] (setting [8]), 108%.
For the molecule `O=C(CO)c1coc(=O)c2c(O)cccc12` [Oosponol], the “dopamine-β-hydroxylase inhibiting effects, in words” value in data set [1] was “strong dopamine-β-hydroxylase inhibiting effects”. In addition, the values for the LD50 in data set [3] (ip) and in data set [3] (po) were 40 mg/kg and 280 mg/kg, respectively.
Take `CC(N)Cc1ccccc1` (stereo not shown) [amphetamine]: the “dopamine-β-hydroxylase inhibiting effects, in words” value in data set [1] is “possess dopamine-β-hydroxylase inhibiting effects”.
As for `NNCc1ccccc1` [benzylhydrazine], in data set [1], the “dopamine-β-hydroxylase inhibiting effects, in words” value is “exert dopamine-β-hydroxylase inhibiting effects” and the “duration of dopamine-β-hydroxylase inhibiting effect, in words” value was “only active for a short period”.
In the case of `CCN(CC)C(=S)S` [diethyl dithiocarbamate], in data set [1], the “dopamine-β-hydroxylase inhibiting effects, in words” value is listed as “strong dopamine-β-hydroxylase inhibiting effects”.
As for `Cn1cc[nH]c1=S` [methimazol], the “dopamine-β-hydroxylase inhibiting effects, in words” value in data set [1] is reported as “possess dopamine-β-hydroxylase inhibiting effects”.
For Dopastine, the “dopamine-β-hydroxylase inhibiting effects, in words” value in data set [1] is reported as “strong dopamine-β-hydroxylase inhibiting effects”.

These data come from patent publication US4179467A, “Dopamine hydroxylase inhibiting 2-amino-cyclopent-1-ene-1-thiocarboxylic acid-disulfides” (Richter Gedeon Vegyeszeti Gyar Rt., priority 1976, dated 1979).
